Data as given in patent US20130189347A1, “DISEASE TREATMENT DRUG” (priority 2010, published 2013).

Columns and labels:
B16 melanoma cells [1] = test: Early-stage cancer: rate of increase in tumor volume in B16 melanoma-transplanted mice; type: in vivo, ICR mice; conditions: CDDP 0.9 mM, 0.2 ml/mouse/dose via tail vein
Method: Five female, six-week-old IRC mice were assigned per group.
iron porphyrin complex/PLLA60wt%-F88 micelles (polymer capsule, 5 mM/0.7 wt %) were used.
As the sample drug (concentration) of the comparative example, CDDP (0.9 mM) was used.
(§1) B16 melanoma cells were used.
The amount of cancer cells injected was 1×10^5/mouse/0.05 ml, which is 1/10 that for end-stage cancer.
(§2) Anchoring of the cancer was confirmed on the 10th day after cancer cell transplantation. The mice were separated into five mice each for the required number of groups (three groups: two groups for the sample drugs and one control group). At the same time, the short diameter and the long diameter of the cancer cell volume in each mouse were measured every two days using calipers. The following equation was calculated:
(§3) [tumor volume]=½×[long diameter]×[short diameter]^2

B16 melanoma cells [2] = test: End-stage cancer: rate of increase in tumor volume in B16 melanoma-transplanted mice; type: in vivo, C57BL/6CrSlC mice
Method: iron porphyrin complex/pH-sensitive liposomes (5 mM/36 mM) and iron porphyrin complex/DPPC-PEG liposomes (5 mM/36 mM) were used […]
as §1
as §2, with “groups (four” for “groups (three”, “groups: three” for “groups: two”
as §3

[3] = End-stage cancer experiment: weight fluctuation, death and side effects
Method: Five female, six-week-old C57BL/6CrSlC mice were assigned per group.
B16 melanoma dispersed in phosphate buffered saline (PBS) was injected into the foot pads (sole) of the mice (C57BL/6, female, six-weeks-old), and cancer was transplanted. The amount of cancer cells injected was 1×10^6/mouse/0.05 ml. The site of injection was within the limited area of the foot pad, in an environment where numerous fine blood vessels, such as capillaries, are present.
In addition, administration of the sample drugs (administered amount: 0.1 ml/mouse/dose) was started on the 13th day after cancer cell transplantation. Drug administration was conducted a total of four times, via tail vein every four days. The weight of each mouse was measured every two days.

| Compound | suppression of increase in tumor volume (B16 melanoma cells [1]) | observation of the transplanted foot (B16 melanoma cells [2]) | course of tumor volume (B16 melanoma cells [2]; four days after administration of the drug) | mice that died ([3]; during 20 days of observation, five mice per group, MMC 0.9 mM, 0.5 mM) | weight increase and decrease (weight fluctuation) ([3]; end-stage cancer, weight measured every two days, FIG. 5) |
| --- | --- | --- | --- | --- | --- |
| [NH2][Pt]([NH2])([Cl])[Cl] [CDDP, Cisplatin] | about ten | – | – | – | – |
| CO[C@@]12[C@H](COC(N)=O)C3=C(C(=O)C(C)=C(N)C3=O)N1C[C@@H]1N[C@@H]12 [MMC, mitomycin] | – | necrosis occurred in the foot itself | sudden increase in tumor volume | two | severe weight fluctuations |
